# Columns and labels:
# [1] = target: Tyrosine-protein kinase SYK (Homo sapiens, UniProt P43405); experiment: Syk Kinase Activity Inhibitiory Experiment: Measure of SYK protein kinase activity was carried out by using the Caliper mobility shift assay. The compound was dissolved with DMSO and diluted with kinase buffer (20 mM HEPES pH 7.5, 0.01% Triton X-100, 5 mM MgCl2, 1 mM MnCl2, 2 mM DTT), and 5 μl of 5 times the final concentration of the compounds (10% DMSO) were added to 384 well plate. 10 μl of 2.5 fold enzyme (with SYK) solution was added and incubated at room temperature for 10 minutes, then 10 of 2.5 fold substrate (Peptide FAM-P22) and ATP) solution was added. The mixture was incubated for 30 minutes under 28° C., and 25 μl of stop buffer (100 mM HEPES pH 7.5, 0.015% Brij-35, 0.2% Coating Reagent #3, 50 mM EDTA) was added to terminate the reaction. Conversion rate data was read by Caliper EZ Reader II (Caliper Life Sciences). Conversion rate was converted to inhibition rate data (% inhibition rate=(max−conversion rate)/(max−min)*100). The max refers to the conversion rate of the DMSO control, and min refers to the conversion rate of the enzyme-free control. The curve was drawn with the compound concentration and inhibition rate as the horizontal and vertical coordinates, and the curve was fitted with the XLFit excel add-in version 4.3.1 Software, and IC50 was calculated.
# Histone deacetylase 1 = Histone deacetylase 1 (Homo sapiens, UniProt Q13547); experiment: HDAC-1 and HDAC-6 Activity Inhibition Experiment: HDAC activity was measured by the Synergy MX Multi-Function Microplate Reader. The compounds were dissolved with DMSO, and transferred to a 384 well test plate using an Echo non-contact nanoscale sonic pipetting system. 15 μl of enzyme (HDAC1/HDAC6, respectively) solvent was added, and incubated at room temperature for 15 minutes, then 10 μl of substrate (trypsin and Ac-peptide) solution was added. Fluorescence intensity signal was read directly on Synergy MX (fluorescence excitation 355 nm, emission fluorescence 460 nm) after cultivated at room temperature for 60 minutes. Fluorescence intensity signal was convented into inhibition rate data (% inhibition rate=(max−fluorescence intensity)/(max−min)*100). The max refers to the fluorescence intensity of the DMSO control, and min refers to the fluorescence intensity of the enzyme-free control. The curve was drawn with the compound concentration and inhibition rate as the horizontal and vertical coordinates, and the curve was fitted with the GraphPad Prism V5.0 Software, and IC50 was calculated.
# Histone deacetylase 1, sequence (Q13547 whole entry): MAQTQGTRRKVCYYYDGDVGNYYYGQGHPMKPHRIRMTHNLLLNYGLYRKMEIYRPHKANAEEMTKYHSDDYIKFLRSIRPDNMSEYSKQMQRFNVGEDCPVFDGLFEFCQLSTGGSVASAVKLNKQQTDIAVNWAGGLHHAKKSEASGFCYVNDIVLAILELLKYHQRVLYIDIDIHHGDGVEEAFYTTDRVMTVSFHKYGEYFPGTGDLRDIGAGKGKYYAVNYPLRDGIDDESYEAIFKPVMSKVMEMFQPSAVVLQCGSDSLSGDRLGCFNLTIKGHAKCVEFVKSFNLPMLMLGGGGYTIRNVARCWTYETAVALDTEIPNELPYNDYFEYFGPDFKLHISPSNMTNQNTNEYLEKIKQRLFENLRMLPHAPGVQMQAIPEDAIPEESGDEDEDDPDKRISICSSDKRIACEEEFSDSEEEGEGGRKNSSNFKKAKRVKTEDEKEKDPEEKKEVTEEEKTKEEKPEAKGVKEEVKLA
structure (smiles),measurement,setting,value
O=C(CCCCCCNC(=O)c1cccc(-c2cn3ccnc3c(Nc3ccc(N4CCOCC4)cc3)n2)c1)NO,IC50,[1],< 500 nM
same,IC50,Histone deacetylase 1,< 100 nM
